Data as given in patent US20050043315A1, “Aminopyrimidine compounds, processes for their preparation and pharmaceutical compositions containing them” (priority 2002, published 2005).

Molecule `CC(C)n1nc(-c2cnc(N)nc2-c2cccnc2)ccc1=O` [Example 52, 6-[2-Amino-4-(3-pyridinyl)-5-pyrimidinyl]-2-isopropyl-3(2H)-pyridazinone] has a melting point of 204 °C.
`CC(C)n1nc(-c2cnc(N)nc2-c2ccncc2)ccc1=O` [Example 53, 6-[2-Amino-4-(4-pyridinyl)-5-pyrimidinyl]-2-isopropyl-3(2H)-pyridazinone] showed a melting point of 219 °C.
In the case of `CC(C)n1nc(-c2cnc(N)nc2-c2cccs2)ccc1=O` [Example 55, 6-(2-Amino-4-(2-thienyl)-5-pyrimidinyl]-2-isopropyl-3(2H)-pyridazinone], the melting point is reported as 213 °C.
`Cc1ccccc1-c1nc(N)ncc1-c1ccc(=O)n(C(C)C)n1` [Example 56, 6-[2-Amino-4-(2-methylphenyl)-5-pyrimidinyl]-2-isopropyl-3(2H)-pyridazinone] gave a melting point of 203 °C.
Work on `Cc1cccc(-c2nc(N)ncc2-c2ccc(=O)n(C(C)C)n2)c1` [Example 57, 6-[2-Amino-4-(3-methylphenyl)-5-pyrimidinyl]-2-isopropyl-3(2H)-pyridazinone] yielded a melting point of 198 °C.
In the case of `COc1ccccc1-c1nc(N)ncc1-c1ccc(=O)n(C(C)C)n1` [Example 58, 6-[2-Amino-4-(2-methoxyphenyl)-5-pyrimidinyl]-2-isopropyl-3(2H)-pyridazinone], the melting point is reported as 170 °C.
For `COc1cccc(-c2nc(N)ncc2-c2ccc(=O)n(C(C)C)n2)c1` [Example 59, 6-[2-Amino-4-(3-methoxyphenyl)-5-pyrimidinyl]-2-isopropyl-3(2H)-pyridazinone], the melting point was 211 °C.
Work on `COc1ccc(-c2nc(N)ncc2-c2ccc(=O)n(C)n2)cc1` [Example 60, 6-[2-Amino-4-(4-methoxyphenyl)-5-pyrimidinyl]-2-methyl-3(2H)-pyridazinone] yielded a melting point of 259 °C.
With `Cn1nc(-c2cnc(N)nc2-c2ccc(Cl)cc2)ccc1=O` [Example 61, 6-[2-Amino-4-(4-chlorophenyl)-5-pyrimidinyl]-2-methyl-3(2H)-pyridazinone] the melting point was 264 °C.
`Cn1nc(-c2cnc(N)nc2-c2cccc(F)c2)ccc1=O` [Example 62, 6-[2-Amino-4-(3-fluorophenyl)-5-pyrimidinyl]-2-methyl-3(2H)-pyridazinone] gave a melting point of 212.5 °C.
`COc1ccc(-c2nc(N)ncc2-c2ccc(=O)n(C)n2)cc1F` [Example 63, 6-(2-Amino-4-(3-fluoro-4-methoxyphenyl)-5-pyrimidinyl]-2-methyl-3(2H)-pyridazinone] gave a melting point of 245 °C.
`Cn1nc(-c2cnc(N)nc2-c2ccco2)ccc1=O` [Example 64, 6-[2-Amino-4-(2-furyl)-5-pyrimidinyl]-2-methyl-3(2H)-pyridazinone] showed a melting point of 234 °C.
Molecule `Cc1ccc(-c2nc(N)ncc2-c2ccc(=O)n(C)n2)cc1` [Example 65, 6-[2-Amino-4-(4-methylphenyl)-5-pyrimidinyl]-2-methyl-3(2H)-pyridazinone] has a melting point of 230 °C.
Work on `Cn1nc(-c2cnc(N)nc2-c2ccc(F)c(F)c2)ccc1=O` [Example 66, 6-[2-Amino-4-(3,4-difluorophenyl)-5-pyrimidinyl]-2-methyl-3(2H)-pyridazinone] yielded a melting point of 231 °C.
In the case of `COc1ccc(-c2nc(N)ncc2-c2ccc(=O)n(C)n2)cc1OC` [Example 67, 6-[2-Amino-4-(3,4-dimethoxyphenyl)-5-pyrimidinyl]-2-methyl-3(2H)-pyridazinone], the melting point is reported as 232 °C.
Work on `Cn1nc(-c2cnc(N)nc2-c2ccc(Cl)c(Cl)c2)ccc1=O` [Example 68, 6-[2-Amino-4-(3,4-dichlorophenyl)-5-pyrimidinyl]-2-methyl-3(2H)-pyridazinone] yielded a melting point of 238 °C.
`Cn1nc(-c2cnc(N)nc2-c2cccs2)ccc1=O` [Example 69, 6-[2-Amino-4-(2-thienyl)-5-pyrimidinyl]-2-methyl-3(2H)-pyridazinone] gave a melting point of 270 °C.
In the case of `Cc1ccccc1-c1nc(N)ncc1-c1ccc(=O)n(C)n1` [Example 70, 6-[2-Amino-4-(2-methylphenyl)-5-pyrimidinyl]-2-methyl-3(2H)-pyridazinone], the melting point is reported as 229 °C.
In the case of `Cc1cccc(-c2nc(N)ncc2-c2ccc(=O)n(C)n2)c1` [Example 71, 6-[2-Amino-4-(3-methylphenyl)-5-pyrimidinyl]-2-methyl-3(2H)-pyridazinone], the melting point is reported as 214 °C.
`COc1ccccc1-c1nc(N)ncc1-c1ccc(=O)n(C)n1` [Example 72, 6-[2-Amino-4-(2-methoxyphenyl)-5-pyrimidinyl]-2-methyl-3(2H)-pyridazinone] showed a melting point of 225 °C.
Molecule `COc1cccc(-c2nc(N)ncc2-c2ccc(=O)n(C)n2)c1` [Example 73, 6-[2-Amino-4-(3-methoxyphenyl)-5-pyrimidinyl]-2-methyl-3(2H)-pyridazinone] has a melting point of 195 °C.
With `Cn1nc(-c2cnc(N)nc2-c2ccccc2Br)ccc1=O` [Example 74, 6-[2-Amino-4-(2-bromophenyl)-5-pyrimidinyl]-2-methyl-3(2H)-pyridazinone] the melting point was greater than 250 °C.
`CSc1nc(N)nc(-c2ccccc2)c1-c1ccc(=O)n(C(C)C)n1` [Example 78, 6-[2-amino-4-(methylthio)-6-phenyl-5-pyrimidinyl]-2-isopropyl-3(2H)-pyridazinone] showed a melting point of 221 to 222 °C.
`CC(C)n1nc(-c2c(-c3ccccc3)nc(N)nc2[S+](C)[O-])ccc1=O` (stereo not drawn) [Example 79, 6-[2-amino-4-(methylsulfinyl)-6-phenyl-5-pyrimidinyl]-2-isopropyl-3(2H)-pyridazinone] showed a melting point of 225 to 227 °C.
For `CC(C)n1nc(-c2c(-c3ccccc3)nc(N)nc2S(C)(=O)=O)ccc1=O` [Example 79, 6-[2-amino-4-(methylsulfonyl)-6-phenyl-5-pyrimidinyl]-2-isopropyl-3(2H)-pyridazinone], the melting point was 210 to 211 °C.
Molecule `COc1nc(N)nc(-c2ccccc2)c1-c1ccc(=O)n(C(C)C)n1` [Example 80, 6-(2-amino-4-methoxy-6-phenyl-5-pyrimidinyl)-2-isopropyl-3(2H)-pyridazinone] has a melting point of 230 to 233 °C.
For `CCOc1nc(N)nc(-c2ccccc2)c1-c1ccc(=O)n(C(C)C)n1` [Example 81, 6-(2-amino-4-ethoxy-6-phenyl-5-pyrimidinyl)-2-isopropyl-3(2H)-pyridazinone], the melting point was 187.5 to 188.5 °C.
Molecule `CC(C)Oc1nc(N)nc(-c2ccccc2)c1-c1ccc(=O)n(C(C)C)n1` [Example 82, 6-(2-Amino-4-isopropoxy-6-phenyl-5-pyrimidinyl)-2-isopropyl-3(2H)-pyridazinone] has a melting point of 176.5 to 177.5 °C.
`CC(C)n1nc(-c2c(OC3CCC3)nc(N)nc2-c2ccccc2)ccc1=O` [Example 83, 6-[2-Amino-4-(cyclobutyloxy)-6-phenyl-5-pyrimidinyl]-2-isopropyl-3(2H)-pyridazinone] showed a melting point of 161 to 162.5 °C.
`C=CCOc1nc(N)nc(-c2ccccc2)c1-c1ccc(=O)n(C(C)C)n1` [Example 84, 6-[4-(Allyloxy)-2-amino-6-phenyl-5-pyrimidinyl]-2-isopropyl-3(2H)-pyridazinone] showed a melting point of 130.5 to 132.5 °C.
`C#CCOc1nc(N)nc(-c2ccccc2)c1-c1ccc(=O)n(C(C)C)n1` [Example 85, 6-[2-amino-4-phenyl-6-(2-propynyloxy)-5-pyrimidinyl]-2-isopropyl-3(2H)-pyridazinone] showed a melting point of 145 to 146.6 °C.
`CC(C)n1nc(-c2c(OCCO)nc(N)nc2-c2ccccc2)ccc1=O` [Example 86, 6-[2-Amino-4-(2-hydroxyethoxy)-6-phenyl-5-pyrimidinyl]-2-isopropyl-3(2H)-pyridazinone] showed a melting point of 182 to 183 °C.
`COCCOc1nc(N)nc(-c2ccccc2)c1-c1ccc(=O)n(C(C)C)n1` [Example 87, 6-[2-Amino-4-(2-methoxyethoxy)-6-phenyl-5-pyrimidinyl]-2-isopropyl-3(2H)-pyridazinone] showed a melting point of 128 to 130 °C.
In the case of `CC(C)n1nc(-c2c(OCCN(C)C)nc(N)nc2-c2ccccc2)ccc1=O` [Example 88, 6-{2-Amino-4-[2-(dimethylamino)ethoxy]-6-phenyl-5-pyrimidinyl}-2-isopropyl-3(2H)-pyridazinone], the melting point is reported as 130 to 131.5 °C.
Work on `COC(=O)COc1nc(N)nc(-c2ccccc2)c1-c1ccc(=O)n(C(C)C)n1` [Example 89, methyl {[2-amino-5-(1-isopropyl-6-oxo-1,6-dihydro-3-pyridazinyl)-6-phenyl-4-pyrimidinyl]oxy}acetate] yielded a melting point of 150 to 152.5 °C.
In the case of `CC(C)n1nc(-c2c(OCCN3C(=O)c4ccccc4C3=O)nc(N)nc2-c2ccccc2)ccc1=O` [Example 90, 2-(2-{[2-Amino-5-(1-isopropyl-6-oxo-1,6-dihydro-3-pyridazinyl)-6-phenyl-4-pyrimidinyl]oxy}-ethyl)-1H-isoindole-1,3(2H)-dione], the melting point is reported as 231.5 to 232.5 °C.
`CCCOc1nc(N)nc(-c2ccccc2)c1-c1ccc(=O)n(C(C)C)n1` [Example 91, 6-(2-amino-4-phenyl-6-propoxy-5-pyrimidinyl)-2-isopropyl-3(2H)-pyridazinone] showed a melting point of 127.5 to 129 °C.
Molecule `CC(C)n1nc(-c2c(OCCF)nc(N)nc2-c2ccccc2)ccc1=O` [Example 92, 6-[2-Amino-4-(2-fluoroethoxy)-6-phenyl-5-pyrimidinyl]-2-isopropyl-3(2H)-pyridazinone] has a melting point of 129 to 130.5 °C.
Work on `CC(C)n1nc(-c2c(OCc3ccccc3)nc(N)nc2-c2ccccc2)ccc1=O` [Example 93, 6-[2-amino-4-(benzyloxy)-6-phenyl-5-pyrimidinyl]-2-isopropyl-3(2H)-pyridazinone] yielded a melting point of 162 to 163 °C.
With `CC(C)n1nc(-c2c(OCc3ccccn3)nc(N)nc2-c2ccccc2)ccc1=O` [Example 94, 6-[2-amino-4-phenyl-6-(2-pyridinylmethoxy)-5-pyrimidinyl]-2-isopropyl-3(2H)-pyridazinone] the melting point was 177 to 178 °C.
Molecule `CC(C)n1nc(-c2c(OC3CCCCC3)nc(N)nc2-c2ccccc2)ccc1=O` [Example 96, 6-[2-Amino-4-(cyclohexyloxy)-6-phenyl-5-pyrimidinyl]-2-isopropyl-3(2H)-pyridazinone] has a melting point of 173 to 175 °C.
In the case of `CC(C)n1nc(-c2c(OC3CCOCC3)nc(N)nc2-c2ccccc2)ccc1=O` [Example 97, 6-[2-Amino-4-phenyl-6-(tetrahydro-2H-pyran-4-yloxy)-5-pyrimidinyl]-2-isopropyl-3(2H)-pyridazinone], the melting point is reported as 207 to 209 °C.
